Results published in publication PMC4441267.

How the values were obtained:
[1] = CuAAC macrocyclisation of azide/terminal alkyne linear peptidomimetics to 1,4-triazole (CuI 2 eq, DIPEA 3 eq, Ar-degassed), then Boc removal (TMSCl/MeOH GP4; HCl/dioxane GP5 for A13w, J13w); details: THF (reflux), 1.2 mM, 66.0 °C, 18.0 h, 2 steps
[2] = RuAAC macrocyclisation of azide/terminal alkyne linear peptidomimetics to 1,5-triazole ([Cp*RuCl]4 0.1 eq, Ar-degassed), then Boc removal (TMSCl/MeOH GP4 or HCl/dioxane GP5); details: toluene (reflux), 1.25 mM, 111.0 °C, 18.0 h, 2 steps

**Q.** For COC(=O)[C@@H]1CCCn2cc(nn2)CCCC(=O)NCCCC[C@H](NC(=O)OC(C)(C)C)C(=O)N1 [Boc-Lys(5-hexynoyl)-Orn(N3)-OMe], which ring closure, yield over several steps ([1]; from C#CCCCC(=O)NCCCC[C@H](NC(=O)OC(C)(C)C)C(=O)N[C@@H](CCCN=[N+]=[N-])C(=O)OC, 19-membered ring) is on record?
**A.** 40%

**Q.** For COC(=O)[C@@H]1CCCCn2cc(nn2)CCCC(=O)NCC[C@H](NC(=O)OC(C)(C)C)C(=O)N1 [Boc-Dab(5-hexynoyl)-Lys(N3)-OMe], which ring closure, yield over several steps ([1]; from C#CCCCC(=O)NCC[C@H](NC(=O)OC(C)(C)C)C(=O)N[C@@H](CCCCN=[N+]=[N-])C(=O)OC, 18-membered ring) is on record?
**A.** 99%

**Q.** For COC(=O)[C@@H]1CCCn2cc(nn2)CCCC(=O)NC[C@H](NC(=O)OC(C)(C)C)C(=O)N1 [Boc-Dap(5-hexynoyl)-Orn(N3)-OMe], which ring closure, yield over several steps ([1]; from C#CCCCC(=O)NC[C@H](NC(=O)OC(C)(C)C)C(=O)N[C@@H](CCCN=[N+]=[N-])C(=O)OC, 16-membered ring) is on record?
**A.** 52%

**Q.** Which ring closure, yield over several steps ([1]; from C#CCCC(=O)NCC[C@H](NC(=O)OC(C)(C)C)C(=O)N[C@@H](CCCN=[N+]=[N-])C(=O)OC, 16-membered ring) does the source give for COC(=O)[C@@H]1CCCn2cc(nn2)CCC(=O)NCC[C@H](NC(=O)OC(C)(C)C)C(=O)N1 [Boc-Dab(4-pentynoyl)-Orn(N3)-OMe] here?
**A.** 99%

**Q.** Which ring closure, yield over several steps ([2]; from C#CCCC(=O)NCC[C@H](NC(=O)OC(C)(C)C)C(=O)N[C@@H](CNC(=O)[C@H](Cc1ccccc1)N=[N+]=[N-])C(=O)OC, 16-membered ring) does the source give for COC(=O)[C@@H]1CNC(=O)[C@H](Cc2ccccc2)n2nncc2CCC(=O)NCC[C@H](N)C(=O)N1 [Boc-Dab(4-pentynoyl)-Dap(N3-Phe)-OMe] here?
**A.** 60%

**Q.** Which ring closure, yield over several steps ([2]; from C#CCCCC(=O)NCCC[C@H](NC(=O)OC(C)(C)C)C(=O)N[C@@H](Cc1ccc(N=[N+]=[N-])cc1)C(=O)OC, 19-membered ring) does the source give for COC(=O)[C@@H]1Cc2ccc(cc2)-n2nncc2CCCC(=O)NCCC[C@H](N)C(=O)N1 [Boc-Orn(5-hexynoyl)-Phe(4-N3)-OMe] here?
**A.** 97%

**Q.** For COC(=O)[C@@H]1Cc2ccc(cc2)-n2nncc2CCC(=O)NCCC[C@H](N)C(=O)N1 [Boc-Orn(4-pentynoyl)-Phe(4-N3)-OMe], which ring closure, yield over several steps ([2]; from C#CCCC(=O)NCCC[C@H](NC(=O)OC(C)(C)C)C(=O)N[C@@H](Cc1ccc(N=[N+]=[N-])cc1)C(=O)OC, 18-membered ring) is on record?
**A.** 62%

**Q.** Which ring closure, yield over several steps ([2]; from C#CCCCC(=O)Nc1ccc(C[C@H](NC(=O)OC(C)(C)C)C(=O)N[C@@H](CCCCN=[N+]=[N-])C(=O)OC)cc1, 20-membered ring) does the source give for COC(=O)[C@@H]1CCCCn2nncc2CCCC(=O)Nc2ccc(cc2)C[C@H](N)C(=O)N1 [Boc-Phe(4-NH-5-hexynoyl)-Lys(N3)-OMe] here?
**A.** 66%

**Q.** With COC(=O)[C@@H]1CCCCn2nncc2CCCC(=O)NCC[C@H](N)C(=O)N1 [Boc-Dab(5-hexynoyl)-Lys(N3)-OMe] as the molecule, how does the ring closure, yield over several steps ([2]; from C#CCCCC(=O)NCC[C@H](NC(=O)OC(C)(C)C)C(=O)N[C@@H](CCCCN=[N+]=[N-])C(=O)OC, 17-membered ring) read?
**A.** 99%

**Q.** With COC(=O)[C@@H]1CNC(=O)[C@H](Cc2ccccc2)n2nncc2CCCC(=O)NCCCC[C@H](N)C(=O)N1 [Boc-Lys(5-hexynoyl)-Dap(N3-Phe)-OMe] as the molecule, how does the ring closure, yield over several steps ([2]; from C#CCCCC(=O)NCCCC[C@H](NC(=O)OC(C)(C)C)C(=O)N[C@@H](CNC(=O)[C@H](Cc1ccccc1)N=[N+]=[N-])C(=O)OC, 19-membered ring) read?
**A.** 99%

**Q.** Which ring closure, yield over several steps ([2]; from C#CCCCC(=O)NCC[C@H](NC(=O)OC(C)(C)C)C(=O)N[C@@H](CCCCNC(=O)[C@H](Cc1ccccc1)N=[N+]=[N-])C(=O)OC, 20-membered ring) does the source give for COC(=O)[C@@H]1CCCCNC(=O)[C@H](Cc2ccccc2)n2nncc2CCCC(=O)NCC[C@H](N)C(=O)N1 [Boc-Dab(5-hexynoyl)-Lys(N3-Phe)-OMe] here?
**A.** 87%

**Q.** Which ring closure, yield over several steps ([2]; from C#CCCC(=O)NC[C@H](NC(=O)OC(C)(C)C)C(=O)N[C@@H](CCCCNC(=O)[C@H](Cc1ccccc1)N=[N+]=[N-])C(=O)OC, 18-membered ring) does the source give for COC(=O)[C@@H]1CCCCNC(=O)[C@H](Cc2ccccc2)n2nncc2CCC(=O)NC[C@H](N)C(=O)N1 [Boc-Dap(4-pentynoyl)-Lys(N3-Phe)-OMe] here?
**A.** 99%

**Q.** Which ring closure, yield over several steps ([2]; from C#CCCCC(=O)NCC[C@H](NC(=O)OC(C)(C)C)C(=O)N[C@@H](CNC(=O)[C@H](Cc1ccccc1)N=[N+]=[N-])C(=O)OC, 17-membered ring) does the source give for COC(=O)[C@@H]1CNC(=O)[C@H](Cc2ccccc2)n2nncc2CCCC(=O)NCC[C@H](N)C(=O)N1 [Boc-Dab(5-hexynoyl)-Dap(N3-Phe)-OMe] here?
**A.** 99%

**Q.** Which ring closure, yield over several steps ([2]; from C#CCNC(=O)NC[C@H](NC(=O)OC(C)(C)C)C(=O)N[C@@H](Cc1ccc(N=[N+]=[N-])cc1)C(=O)OC, 16-membered ring) does the source give for COC(=O)[C@@H]1Cc2ccc(cc2)-n2nncc2CNC(=O)NC[C@H](N)C(=O)N1 [Boc-Dap(CONH-propargyl)-Phe(4-N3)-OMe] here?
**A.** 27%

**Q.** With COC(=O)[C@@H]1CCCCn2nncc2CCCC(=O)NC[C@H](N)C(=O)N1 [Boc-Dap(5-hexynoyl)-Lys(N3)-OMe] as the molecule, how does the ring closure, yield over several steps ([2]; from C#CCCCC(=O)NC[C@H](NC(=O)OC(C)(C)C)C(=O)N[C@@H](CCCCN=[N+]=[N-])C(=O)OC, 16-membered ring) read?
**A.** 99%

**Q.** For COC(=O)[C@@H]1CNC(=O)[C@H](Cc2ccccc2)n2nncc2CNC(=O)NCC[C@H](N)C(=O)N1 [Boc-Dab(CONH-propargyl)-Dap(N3-Phe)-OMe], which ring closure, yield over several steps ([2]; from C#CCNC(=O)NCC[C@H](NC(=O)OC(C)(C)C)C(=O)N[C@@H](CNC(=O)[C@H](Cc1ccccc1)N=[N+]=[N-])C(=O)OC, 16-membered ring) is on record?
**A.** 52%

**Q.** With COC(=O)[C@@H]1CCCn2nncc2CNC(=O)NCCC[C@H](N)C(=O)N1 [Boc-Orn(CONH-propargyl)-Orn(N3)-OMe] as the molecule, how does the ring closure, yield over several steps ([2]; from C#CCNC(=O)NCCC[C@H](NC(=O)OC(C)(C)C)C(=O)N[C@@H](CCCN=[N+]=[N-])C(=O)OC, 16-membered ring) read?
**A.** 99%

**Q.** For COC(=O)[C@@H]1CCCCNC(=O)[C@H](Cc2ccccc2)n2nncc2CCC(=O)Nc2ccc(cc2)C[C@H](N)C(=O)N1 [Boc-Phe(4-NH-4-pentynoyl)-Lys(N3-Phe)-OMe], which ring closure, yield over several steps ([2]; from C#CCCC(=O)Nc1ccc(C[C@H](NC(=O)OC(C)(C)C)C(=O)N[C@@H](CCCCNC(=O)[C@H](Cc2ccccc2)N=[N+]=[N-])C(=O)OC)cc1, 22-membered ring) is on record?
**A.** 57%

**Q.** With COC(=O)[C@@H]1CCCn2nncc2CCC(=O)NC[C@H](N)C(=O)N1 [Boc-Dap(4-pentynoyl)-Orn(N3)-OMe] as the molecule, how does the ring closure, yield over several steps ([2]; from C#CCCC(=O)NC[C@H](NC(=O)OC(C)(C)C)C(=O)N[C@@H](CCCN=[N+]=[N-])C(=O)OC, 14-membered ring) read?
**A.** 99%

**Q.** Which ring closure, yield over several steps ([2]; from C#CCNC(=O)NCC[C@H](NC(=O)OC(C)(C)C)C(=O)N[C@@H](CCCN=[N+]=[N-])C(=O)OC, 15-membered ring) does the source give for COC(=O)[C@@H]1CCCn2nncc2CNC(=O)NCC[C@H](N)C(=O)N1 [Boc-Dab(CONH-propargyl)-Orn(N3)-OMe] here?
**A.** 99%
